From patent US20250025438A1, “Derivative of aspartic acid and use thereof in treatment of metabolic diseases such as hepatic fibrosis and non-alcoholic hepatitis” (SHENZHEN JINGTAI TECHNOLOGY CO., LTD., priority 2021, published 2025)
Where a SMILES comes first, the peptide text is derived from it.

Tests used:
COL1A1 = experiment: In vitro efficacy in semi-activated LX2 cells, qPCR: COL1A1; assay type: cell-based; details: 48 hours, Q-PCR; for inhibition at 50 µM: Homo sapiens, LX-2, 50 µM, read-out: COL1A1 mRNA inhibition rate
Description: (§1) Test compounds were added to the LX-2 cells respectively, and total RNA in the cells was extracted 48 hours later. This experiment was performed strictly in accordance with the instructions of the Total RNA Kit. The steps were as follows (note: this experiment was performed on ice throughout the entire process, and special RNase-free tips were used throughout the entire process): • 1) The 12-well cell culture plate was taken out from the incubator, the cell culture medium was discarded, the cells were washed twice with 1 mL of 1×PBS, and a negative pressure suction device was used to fully remove PBS; • 2) 350 μL of TRK Lysis Buffer mixture/well was prepared as needed (mixture preparation method: 1 mL of TRKLysis Buffer+20 μL of β-mercaptoethanol), vortexed and mixed well. 350 μL was added to each well of the 12-well cell culture plate, and allowed to stand at room temperature for 5 minutes to fully lyse the cells; • 3) 70% ethanol/well was prepared as needed, vortexed and mixed well. 350 μL was added to each well of the 12-well cell culture plate, mixed well by shaking, and transferred to the spin column (spin column+collection tube were assembled); • 4) Centrifugation was performed at 4° C., 12000 g for 60 sec. The waste liquid was discarded after centrifugation, while the spin column was kept; • 5) 500 μL of RNA Wash Buffer I was added, centrifuged at 4° C., 12000 g for 60 sec, the waste liquid was discarded after centrifugation, and the collection column was kept; • 6) 500 μL of RNA Wash Buffer II (confirmed that ethanol had been added) was added, centrifuged at 4° C., 12000 g for 60 sec, the waste liquid was discarded after centrifugation, and the collection column was kept; • 7) step 6) was repeated once again, centrifugation was performed at 4° C., 12000 g for 90 sec, the waste liquid was discarded after centrifugation, and the collection column was kept; • 8) Centrifugation was performed at 4° C., 12000 g for 120 sec to ensure that the spin column was fully dried; • 9) The dried spin column was inserted into a new 1.5 mL EP tube, and 30 μL of DEPC water was added to the membrane in the center of the spin column. It should be careful not to touch the EP tube cover in this step. It was allowed to stand at room temperature for 5 minutes to ensure that the RNA was fully dissolved in DEPC water. Centrifugation was performed at 4° C., 12000 g for 60 sec, and the EP tube was kept; • 10) NanoDrop ultra-micro-volume spectrophotometer was used to detect RNA concentration;
(§2) 5.2 Reverse transcription of RNA into cDNA: According to the instructions of PrimeScript™ RT reagent Kit (Perfect Real Time), the specific experimental steps were as follows:
(§3) 5.3 Q-PCR detection of target gene expression: According to the instructions of Power SYBR® Green PCR Master Mix, the specific operations were as follows:
(§4) After the reaction was completed, the amplification curve and dissolution curve of Q-PCR were confirmed, and the relative quantification method ([…]) was used to perform data analysis on the experimental results.
(§5) LX2 cells were passaged and plated normally. […] After 48 hours, the cells were collected, total RNA was extracted, and Q-PCR was used to detect the changes in the mRNA expression levels of liver fibrosis-related genes (ACTA2 encoding α-SMA, COL1A1 and COLIA2 encoding collagen I, COL3A1 encoding collagen III, SMAD3 encoding Smad3) and inflammation-related genes (IL1β encoding IL-1β, TNFα encoding TNFα) (for specific methods, see 5. Q-PCR detection of target gene expression as described above). α-SMA was a marker of hepatic stellate cell activation, and collagen I and collagen III were the main components of extracellular matrix deposition.

COL3A1 = experiment: In vitro efficacy in semi-activated LX2 cells, qPCR: COL3A1; assay type: cell-based; details: 48 hours, Q-PCR; for inhibition at 50 µM: Homo sapiens, LX-2, 50 µM, read-out: COL3A1 mRNA inhibition rate
Description: as §1, §2, §3, §4, §5

TNF-α = experiment: In vitro efficacy in semi-activated LX2 cells, qPCR: TNF-α; assay type: cell-based; details: Q-PCR; for inhibition at 50 µM: Homo sapiens, LX-2, 48 hours, read-out: TNF-α mRNA inhibition rate
Description: as §1, §2, §3, §4
(§6) LX2 cells were passaged and plated normally. After adherent growth for 12 hours, 50 µM of the test compound was added. After 48 hours, the cells were collected, total RNA was extracted, and Q-PCR was used to detect the changes in the mRNA expression levels of liver fibrosis-related genes (ACTA2 encoding α-SMA, COL1A1 and COLIA2 encoding collagen I, COL3A1 encoding collagen III, SMAD3 encoding Smad3) and inflammation-related genes (IL1β encoding IL-1β, TNFα encoding TNFα) (for specific methods, see 5. Q-PCR detection of target gene expression as described above). α-SMA was a marker of hepatic stellate cell activation, and collagen I and collagen III were the main components of extracellular matrix deposition.

IL-1β = experiment: In vitro efficacy in semi-activated LX2 cells, qPCR: IL-1β; assay type: cell-based; details: 48 hours, Q-PCR; for inhibition at 50 µM: Homo sapiens, LX-2, 50 µM, read-out: IL-1β mRNA inhibition rate
Description: as §1, §2, §3, §4, §5

α-SMA [1] = experiment: In vitro efficacy in semi-activated LX2 cells, qPCR: α-SMA; assay type: cell-based; details: 48 hours, Q-PCR; for inhibition at 50 µM: read-out: α-SMA mRNA inhibition rate; for inhibition of the expression of α-SMA at the mRNA level: Table 2
Description: as §1, §2, §3, §4, §5

COL1A2 = experiment: In vitro efficacy in semi-activated LX2 cells, qPCR: COL1A2; assay type: cell-based; details: Q-PCR; for inhibition at 50 µM: Homo sapiens, LX-2, 48 hours, read-out: COL1A2 mRNA inhibition rate
Description: as §1, §2, §3, §4, §6

Smad3 = experiment: In vitro efficacy in semi-activated LX2 cells, qPCR: Smad3; assay type: cell-based; details: 48 hours, Q-PCR; for inhibition of the expression of Smad3 at the mRNA level: Table 2; for inhibition at 50 µM: Homo sapiens, LX-2, 50 µM, read-out: Smad3 mRNA inhibition rate
Description: as §1, §2, §3, §4, §5

[2] = tested on: collagen I and collagen III; experiment: Semi-activated LX2 cells, qPCR: collagen I and collagen III at the mRNA level; assay type: cell-based; details: 48 hours, Q-PCR, Table 2
Description: as §1, §3
as §6, with “deposition. […]” for “deposition.”

[3] = tested on: liver fibrosis-related genes; experiment: Semi-activated LX2 cells, qPCR: liver fibrosis-related genes overall; assay type: cell-based; details: 48 hours, Q-PCR, Table 2
Description: as §1, §3, §6

α-SMA [4] = experiment: Semi-activated LX2 cells, Western blot: α-SMA protein; assay type: cell-based; details: 50-400 μM, 48 hours, FIG. 2, vs 50 μM aspartic acid
[5] = Pharmacokinetic testing in rats; assay type: in vivo, SD rats; details: male, SD, rat, plasma, PO 20 mg/kg
Description: Rats were used as test animals to study the pharmacokinetic behavior of the following compounds in rat plasma.
The drugs were self-made according to the examples of the present invention.
SD rats, 6-8 weeks old, 3 for each administration method/example, male.
The animals were fasted overnight, ate food 8 hours after taking the drug, and drank water freely.
Blood was collected before administration and at 5 min, 15 min, 30 min, 1 hr, 2 hr, 4 hr, 8 hr and 24 hr after administration.
The blood was placed on wet ice and centrifuged to obtain plasma sample (2000 g, 5 min at 4° C.).
The LC-MS/MS method was used to determine the blood drug concentration. The HPLC conditions were: mobile phase A: H2O-0.5% FA; mobile phase B: ACN-0.5% FA;
WinNonlin 8.2 non-compartmental model was used to estimate pharmacokinetic parameters (PK parameters, including but not limited to peak concentration (Cmax), time to peak (Tmax), terminal elimination rate (Ke), terminal elimination half-life (T1/2), area under drug-time curve (AUC), clearance rate (CL), apparent volume of distribution (Vd), mean residence time (MRT), bioavailability (F), etc.).

SMILES	inhibition at 50 µM (COL1A1)	inhibition at 50 µM (COL3A1)	inhibition at 50 µM (TNF-α)	inhibition at 50 µM (IL-1β)	inhibition at 50 µM (α-SMA [1]; 50 µM)	inhibition at 50 µM (COL1A2)	inhibition at 50 µM (Smad3)	inhibition of the expression of collagen I and collagen III at the mRNA level [2]	also measured
NCC(=O)N[C@@H](CC(=O)O)C(=O)O [Compound 28] (H-Gly-Asp-OH)	10 to 25%	10 to 25%	1 to 10%	10 to 25%	10 to 25%	1 to 10%	10 to 25%	could inhibit	inhibition of the expression of α-SMA at the mRNA level (α-SMA [1]): could inhibit; inhibition of the expression of Smad3 at the mRNA level (Smad3): could inhibit
CC(C)(C)OC(=O)C[C@H](N)C(=O)O [Compound 13]	–	–	1 to 10%	1 to 10%	1 to 10%	1 to 10%	–	–	–
CNC(=O)C[C@H](N)C(=O)O [Compound 33]	25 to 50%	1 to 10%	–	1 to 10%	25 to 50%	1 to 10%	1 to 10%	could inhibit	inhibition of the expression of α-SMA at the mRNA level (α-SMA [1]): could inhibit
C=CCOC(=O)[C@H](CC(=O)O)NC(=O)OCC1c2ccccc2-c2ccccc21 [Compound 10]	1 to 10%	10 to 25%	10 to 25%	1 to 10%	1 to 10%	1 to 10%	1 to 10%	could inhibit	–
CCC(=O)N[C@@H](CC(=O)O)C(=O)O [Compound 58, propionyl-L-aspartic acid]	–	1 to 10%	–	1 to 10%	1 to 10%	1 to 10%	–	–	–
N[C@@H](CC(=O)OC1CCCCC1)C(=O)O [Compound 23]	1 to 10%	1 to 10%	1 to 10%	1 to 10%	–	1 to 10%	1 to 10%	–	–
COC(=O)[C@H](CC(=O)O)NC(=O)OC(C)(C)C [Compound 26]	25 to 50%	25 to 50%	10 to 25%	–	10 to 25%	1 to 10%	10 to 25%	could inhibit	inhibition of the mRNA expression levels of liver fibrosis-related genes (overall) [3]: stronger effects; inhibition of the expression of α-SMA at the mRNA level (α-SMA [1]): could inhibit; inhibition of the expression of Smad3 at the mRNA level (Smad3): could inhibit
CCOC(=O)C[C@H](N)C(=O)OCC.Cl [Compound 12]	–	–	–	–	–	–	–	could inhibit	inhibition of the mRNA expression levels of liver fibrosis-related genes (overall) [3]: stronger effects; COL1A1 mRNA inhibition rate (COL1A1; 50 µM): C (C represented that the inhibition rate was 25% to 50%); COL3A1 mRNA inhibition rate (COL3A1; 50 µM): C (C represented that the inhibition rate was 25% to 50%); TNF-α mRNA inhibition rate (TNF-α; 50 µM, 48 hours): D (D represented that the inhibition rate was 10% to 25%); IL-1β mRNA inhibition rate (IL-1β; 50 µM): E (E represented that the inhibition rate was 1% to 10%); α-SMA mRNA inhibition rate (α-SMA [1]; 50 µM): E (E represented that the inhibition rate was 1% to 10%); COL1A2 mRNA inhibition rate (COL1A2; 50 µM, 48 hours): E (E represented that the inhibition rate was 1% to 10%); Smad3 mRNA inhibition rate (Smad3; 50 µM): D (D represented that the inhibition rate was 10% to 25%); inhibition of the expression of Smad3 at the mRNA level (Smad3): could inhibit
COC(=O)N[C@@H](CC(=O)O)C(=O)O [Compound 61, (methoxycarbonyl)-L-aspartic acid]	25 to 50%	1 to 10%	1 to 10%	1 to 10%	–	1 to 10%	1 to 10%	could inhibit	–
CC(=O)N[C@@H](CC(=O)O)C(=O)O [Compound 30]	25 to 50%	–	–	10 to 25%	1 to 10%	1 to 10%	–	could inhibit	–
N[C@@H](CC(=O)O)C(=O)N[C@@H](Cc1ccccc1)C(=O)O [Compound 39] (H-Asp-Phe-OH)	–	1 to 10%	1 to 10%	–	–	1 to 10%	–	–	–
O=C(O)C[C@H](NC(=O)OCc1ccccc1)C(=O)O [Compound 2]	25 to 50%	10 to 25%	10 to 25%	1 to 10%	1 to 10%	1 to 10%	1 to 10%	could inhibit	–
CC(C)(C)OC(=O)C[C@H](N)C(=O)OC(C)(C)C [Compound 41]	–	1 to 10%	–	1 to 10%	–	–	–	–	inhibitory effect on α-SMA protein as compared to ASP (α-SMA [4]): stronger inhibitory effects
N[C@@H](CC(=O)O)C(=O)O [Aspartic acid, aspartic acid]	–	–	–	–	–	–	–	–	AUC(0-t) [5]: 26700 ng·h/mL; Tmax [5]: 24 h; Cmax ([5]; read-out: Cmax): 1960 ng/mL
